Several values for one entry are separate records, joined by “and”; a condition that tells them apart may be missing. Equal entries are not always repeated.
Tested on: 832693-133-R-J1-PDC multi-cell spheroids, viability
Assay: Anticancer human tumor 832693-133-R-J1-PDC patient-derived head and neck squamous carcinoma cell line growth inhibition [IpAb]
Details: for viability, T/C: stronger effect = lower value
Text: Combinatorial screen of targeted agents with ipatasertib and abemaciclib in multi-cell type tumor spheroids
A high-throughput screen of multi-cell type tumor spheroids was designed to identify active combinations of targeted small molecules and ipatasertib or abemaciclib. Complex spheroids include a stromal component modeled by human endothelial cells (HUVEC) and fibroblasts modeled by human mesenchymal stem cells (MSCs). The concentration ranges selected for each drug and investigational agent were based upon clinically achievable concentrations if the clinical Cmax of the agent was known.
Compounds. The drugs and investigational agents: ipatasertib (NSC767898), abemaciclib(NSC768073), selumetinib (NSC741078), trametinib (758246), adavosertib (NSC754352), everolimus (NSC733504), sapanisertib (NSC764658), vemurafenib (NSC761431), venetoclax (NSC766270), copanlisib (NSC809693), apelisib (NSC765974), palbociblib (NSC758247), vemurafenib (NSC761431), dabrafenib (NSC764134), ravoxertinib (NSC781343), BMS-387032 (NSC767048), sotorasib (NSC818433), talazoparib (NSC767125) and afursertib (NSC778305), were obtained from the National Cancer Institute (NCI) Developmental Therapeutics Program Chemical Repository. The FDA-approved anticancer drug set is available from the NCI Developmental Therapeutics Program. […] The stock solutions were prepared in dimethyl sulfoxide (DMSO, Sigma-Aldrich, St. Louis, MO, cat. D2650) at 800-fold the tested concentration and stored at -70 degrees C prior to their use. All drugs and investigational agents were tested over a range starting from a high concentration at or near the clinical Cmax and decreasing in half-log increments. If the clinical Cmax for an agent had not been determined, the highest concentration tested was 10 microM.
NCI60 Cell Culture. NCI60 cell lines were obtained from the NCI Developmental Therapeutics Program Tumor Repository. For each lot of cells, the Repository performed Applied Biosystems AmpFLSTR Identifiler testing with PCR amplification to confirm consistency with the published Identifier STR profile for each cell line. Cells were kept in continuous culture for no more than 20 passages. The optimal seeding densities for each of the cell lines at each time point assessed were determined prior to performing the concentration response studies. Briefly, the NCI60 human tumor lines were grown as monolayers in RPMI 1640 medium supplemented with 10% FBS and 2 mmol/L L-glutamine.
An additional 9 lines were from the NCI60 cell line panel including MDA-MB-231 breast carcinoma, MDA-MB-468 breast carcinoma, MCF7 breast carcinoma, Hs578T breast carcinoma, MALME-3M melanoma, SK-MEL-2 melanoma, SK-OV-3 ovarian carcinoma, DU-145 prostate carcinoma, PC-3 prostate carcinoma, all cell lines along with major genetic alterations are listed on Table 2. Pooled donor human umbilical vein endothelial cells (HUVEC, Lonza, cat. CC-2519) and human mesenchymal stem cells (hMSC, Lonza, cat. PT-2501) were purchased from Lonza (Walkersville, MD).
PDMR cell lines were grown in complete medium (DC medium): Dulbecco's modified Eagle's medium (DMEM)/F12 supplemented with 5% fetal bovine serum (FBS), 2 mM L-glutamine, 100 U/mL penicillin and 100 µg/ml streptomycin, 0.4 µg/ml hydrocortisone, 10 ng/ml epidermal growth factor (EGF) recombinant human protein, 24 µg/mL adenine, and 0.1 mg/mL primocin. During culture from frozen stock vials, PDMR cells were cultured in the same medium containing 10 µM Y-27632 (see Table 3). The PDCs were cultured in complete DMEM/F12 media without 10 microM Y-27632 dihydrochloride for at least two passages prior to the screen. The pooled donor HUVEC and hMSC were cultured in endothelial cell growth medium 2 (PromoCell, Heidelberg, Germany, cat. C-22011) and mesenchymal stem cell growth medium 2 (PromoCell, cat. C-28009), respectively. For all experiments, HUVEC and hMSC were used at passages </=5.
[…]
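Note: spheroids exposed to the drugs for one week before the viability readout.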
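Throughout, for viability, T/C: 100% = DMSO vehicle control wells.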

CC1(C)CCC(CN2CCN(c3ccc(C(=O)NS(=O)(=O)c4ccc(NCC5CCOCC5)c([N+](=O)[O-])c4)c(Oc4cnc5[nH]ccc5c4)c3)CC2)=C(c2ccc(Cl)cc2)C1 + CC(C)NCC(C(=O)N1CCN(c2ncnc3c2C(C)CC3O)CC1)c1ccc(Cl)cc1
IC50 (curve of first compound, second compound 0.1 µM): 9.68 µM | IC50 (curve of first compound, second compound 0.316 µM): 4.87 µM | IC50 (curve of first compound, second compound 1 µM): 3.92 µM | IC50 (curve of first compound, second compound 3.16 µM): 3.74 µM | IC50 (curve of first compound, second compound 10 µM): 3.64 µM | viability, T/C (second compound 0.1 µM, first compound 0.0316 µM): 94.1% | viability, T/C (second compound 0.1 µM, first compound 0.1 µM): 90.3% | viability, T/C (second compound 0.1 µM, first compound 0.316 µM): 94.6% | viability, T/C (second compound 0.1 µM, first compound 1 µM): 88.5% | viability, T/C (second compound 0.1 µM, first compound 3.16 µM): 82.7% | viability, T/C (second compound 0.1 µM, first compound 10 µM): 48.8% | viability, T/C (second compound 0.316 µM, first compound 0.0316 µM): 81.2% | viability, T/C (second compound 0.316 µM, first compound 0.1 µM): 80.3% | viability, T/C (second compound 0.316 µM, first compound 0.316 µM): 74.2% | viability, T/C (second compound 0.316 µM, first compound 1 µM): 64.7% | viability, T/C (second compound 0.316 µM, first compound 3.16 µM): 68.7% | viability, T/C (second compound 0.316 µM, first compound 10 µM): 26.9% | viability, T/C (second compound 1 µM, first compound 0.0316 µM): 60.9% | viability, T/C (second compound 1 µM, first compound 0.1 µM): 55.2% | viability, T/C (second compound 1 µM, first compound 0.316 µM): 55.2% | viability, T/C (second compound 1 µM, first compound 1 µM): 49.5% | viability, T/C (second compound 1 µM, first compound 3.16 µM): 72.4% | viability, T/C (second compound 1 µM, first compound 10 µM): 12.7% | viability, T/C (second compound 3.16 µM, first compound 0.0316 µM): 51.2% | viability, T/C (second compound 3.16 µM, first compound 0.1 µM): 47.6% | viability, T/C (second compound 3.16 µM, first compound 0.316 µM): 55.5% | viability, T/C (second compound 3.16 µM, first compound 1 µM): 57.3% | viability, T/C (second compound 3.16 µM, first compound 3.16 µM): 73.2% | viability, T/C (second compound 3.16 µM, first compound 10 µM): 8.99% | viability, T/C (second compound 10 µM, first compound 0.0316 µM): 58.6% | viability, T/C (second compound 10 µM, first compound 0.1 µM): 62.5% | viability, T/C (second compound 10 µM, first compound 0.316 µM): 52.2% | viability, T/C (second compound 10 µM, first compound 1 µM): 51.6% | viability, T/C (second compound 10 µM, first compound 3.16 µM): 57.4% | viability, T/C (second compound 10 µM, first compound 10 µM): 3.92%

Cn1ncnc1[C@H]1c2n[nH]c(=O)c3cc(F)cc(c23)N[C@@H]1c1ccc(F)cc1
viability, T/C (compound 0.000316 µM): 110% and 111% | viability, T/C (compound 0.001 µM): 97.9% and 109% | viability, T/C (compound 0.00316 µM): 98.3% and 96.9% | viability, T/C (compound 0.01 µM): 86.5% and 107% | viability, T/C (compound 0.0316 µM): 95.6% and 93.8% | viability, T/C (compound 0.1 µM): 86.1% and 84.1% | IC50 (curve of compound): > 0.1 µM

C=CC(=O)N1CCN(c2nc(=O)n(-c3c(C)ccnc3C(C)C)c3nc(-c4c(O)cccc4F)c(F)cc23)C(C)C1 (centres undefined)
viability, T/C (compound 0.0316 µM): 105% and 95% | viability, T/C (compound 0.1 µM): 108% and 101% | viability, T/C (compound 0.316 µM): 111% and 103% | viability, T/C (compound 1 µM): 114% and 115% | viability, T/C (compound 3.16 µM): 122% and 110% | viability, T/C (compound 10 µM): 100% and 98.5% | IC50 (curve of compound): > 10 µM

Reference: PubChem BioAssay AID2060337 (Molecular Pharmacology Branch, DTP, NCI, 2025)
